From PMC12036814 (Angewandte Chemie (International Ed. in English), 2025)
Where two headings read alike, the source gives them in different places.

What was measured:
NUDT1 = NUDT1 (Homo sapiens, UniProt P36639); assay: Thermal protein profiling (TPP) in intact HEK293 cells; assay type: cell-based; design: endogenous in cells; host or cells: HEK293; conditions: 1 h
Method: incubated in a thermoshaker (600 rpm, 16 h, 37 °C). The digest was stopped by adding 10 μL formic
acid (FA) and vortexing followed by centrifugation (12,000 ×g, 3 min, room temperature). 50 mg
SepPak C18 columns (Waters, Milford, USA, Cat# WAT054960) were equilibrated by gravity flow two
times with 1 mL acetonitrile and three times with 1 mL aqueous 0.1% trifluoroacetic acid (TFA) solution.
Subsequently, the samples were loaded by gravity flow, washed three times with 1 mL aqueous 0.1%
TFA solution and once with 0.5 mL aqueous 0.5% formic acid (F A) solution. Elution of peptides into
new 2.0 mL Protein LoBind Eppendorf tubes was performed by two times addition of 250 μL elution
buffer (80% acetonitrile, 0.5% FA) by gravity flow followed by 250 μL elution buffer by vacuum flow
until all liquid was eluted from the column. The eluates were lyophilized. Before MS measurement the
(brief centrifugation after each step).
Thermal protein profiling (TPP)
The experiment was performed similarly to TPP-TR experiments described by Franken et al. with minor
modifications.5 HEK293 cells were grown in 8 T175 flasks to approx. 80-90% confluency. Per replicate
volume of 0.1 N HCl as vehicle control. Per condition two replicates were used, leading to a total of 8
T175 flasks. The cells were washed with PBS, detached with accutase, the two flask per replicate […]

PTGR2 = biological target: T1, PTGR2 (Homo sapiens, UniProt Q8N8N7); assay: PTGR2 activity assay (LC-MS/MS); assay type: biochemical; conditions: tested up to 250 μM, data not shown
T1 construct: purchased Antikoerper-online ABIN1098255
T1 sequence (Q8N8N7 whole entry): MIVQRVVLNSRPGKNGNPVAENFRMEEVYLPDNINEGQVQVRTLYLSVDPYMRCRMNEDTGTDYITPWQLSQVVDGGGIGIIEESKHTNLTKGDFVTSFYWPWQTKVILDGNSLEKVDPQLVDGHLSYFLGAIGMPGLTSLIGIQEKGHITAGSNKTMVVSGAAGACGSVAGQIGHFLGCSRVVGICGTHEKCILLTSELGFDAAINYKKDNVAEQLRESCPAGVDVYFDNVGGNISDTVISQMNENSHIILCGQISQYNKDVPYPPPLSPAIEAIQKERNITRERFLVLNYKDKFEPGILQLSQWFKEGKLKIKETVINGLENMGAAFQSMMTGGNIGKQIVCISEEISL
Method: AIFM1 expression & purification
Recombinant AIFM1 was expressed in a Rosetta2 E. coli strain. Bacterial growth was conducted in LB media supplemented with riboflavin and FAD shaking at 37°C and 180 rpm. Expression was induced with 1.0 mM IPTG and incubated for further 16 h before harvesting. Cells were harvested on ice in PBS and cell pellets stored at -20°C. Cells were lysed by French press and the 6xHis-tagged constructs were purified by Immobilized Metal Affinity Chromatography using Ni Sepharose (6 Fast Flow, GE). The centrifugation-cleared bacterial lysate was bound to beads in binding buffer (200 mM NaCl, 20 mM Tris/Cl pH = 7.4). […]
For gel-based fluorescence labelling of recombinant AIFM1, 1.7 µM recombinant protein was spiked - in to PBS or PBS -diluted HEK293 cell lysate ( 100 µg per reaction sample). […]
Click Master-mix (8 µL, 100 µM TAMRA-azide, Baseclick, Neuried, Germany, Cat# BCFA-008-10, 500 µM BTTAA ligand, Jena Bioscience, Jena, Germany, CLK -067, 1 mM CuSO4) was added and the CuAAC reaction started by addition of 2 µL of aq. sodium ascorbate (c end= 2 mM). […] Fluorescence scanning was performed using a Las-3000 fluorescence darkbox (Fujifilm, Minato, Japan) with a Fujinon VRF 43LMD Lens, 605DF40 filter and 520 nm EPI excitation wavelength and loading controls were developed with Coomassie stain afterwards. […]

In the case of O=C(O)c1cn(C2CC2)c2cc(N3CCNCC3)c(F)cc2c1=O [Ciprofloxacin], the ΔTm at 70 µM (NUDT1; read-out: ΔTm Rep. 1) is reported as 3.29 °C, the ΔTm at 70 µM (NUDT1; read-out: ΔTm Rep. 2) is reported as 3.4 °C and the PTGR2 activity (PTGR2) is reported as “not significantly affected”.
